Article PMC9388626, “STUB1 is an intracellular checkpoint for interferon gamma sensing” (Scientific Reports, 2022)

Legend:
[1] = system: B16-F10 cells; assay: Flow cytometry, surface MHC-I on CRISPR-edited cells with IFNγ; assay type: cell-based, murine; details: for Surface MHC-I relative to Parental (Fig. 1c): Parental = 1.00
Experimental: Parental, CRISPR-edited or biologic-overexpressed tumour cells were seeded in a cell density of 60,000 (B16-F10), 150,000 (CT26), 100,000 (A375), or 200,000 (A549) per well in 12-well plate filled with 0.8 ml culture media + 10% FBS. After overnight incubation, the culture media were replaced with 1 ml fresh media supplemented with 10% FBS and the designated concentration of the recombinant mouse IFNγ (R&D Systems, #485-MI-100) or recombinant human IFNγ (R&D Systems, #285-IF-100). […]
(§1) Cells were dissociated from the wells with 0.25% trypsin (Gibco, 25200056). After rinsing with 0.5 ml PBS, each sample was stained with the LIVE/DEAD Fixable Aqua dead cell staining solution (Life Technologies, L34957) in 100 µl PBS (1:1000 dilution) for 15 min at 4 °C. After rinsing with 2 × 0.5 ml PBS, each sample was stained with the corresponding primary antibody-dye conjugates diluted in 100 µl Pharmingen stain buffer (BD Biosciences, #554657). After 1 h staining at 4 °C, the cells were rinsed with 2 × 2 ml Pharmingen stain buffer and fixed with 4.21% (w/w) formaldehyde (BD Biosciences, #554655). Cells were analyzed on LSRFortessa X-20 (BD Biosciences) with appropiate fluorescence compensation. The data were analyzed using FlowJo. Cells were gated based on FSC and SSC. Single cells were selected using FSC-A and FSC-H and viable cells were selected using LIVE/DEAD signal. Primary antibodies used were: H-2K^b/H-2D^b (FITC, Biolegend, #114606, 1:50 dilution), HLA-A,B,C (FITC, Biolegend, #311404, 1:100 dilution), mouse IFNGR1 (PE, Invitrogen, #12-1191-82, 1:50 dilution), human IFNGR1 (PE, Miltenyi, #130-125-851, 1:50 dilution), mouse IL1R1 (APC, Biolegend, #113509, 1:20 dilution), mouse IL6R (APC, Biolegend, #115812, 1:20 dilution), mouse IFNAR1 (APC, Biolegend, #127314, 1:20 dilution), and mouse GP130 (PE, Biolegend, #149404, 1:100 dilution).

[2] = system: B16-F10 cells; assay: Flow cytometry, surface IFNGR1 on CRISPR-edited cells; assay type: cell-based, murine; details: for Surface IFNGR1 relative to Parental (Fig. 2c): Parental = 1.00
Experimental: Parental, CRISPR-edited or biologic-overexpressed tumour cells were seeded in a cell density of 60,000 (B16-F10), 150,000 (CT26), 100,000 (A375), or 200,000 (A549) per well in 12-well plate filled with 0.8 ml culture media + 10% FBS. After overnight incubation, the culture media were replaced with 1 ml fresh media supplemented with 10% FBS and the designated concentration of the recombinant mouse IFNγ (R&D Systems, #485-MI-100) or recombinant human IFNγ (R&D Systems, #285-IF-100). The cells were stimulated with the cytokine for 24 h before they were harvested by trypsinization for flow cytometry, western blot, or qPCR analysis (6 h treatment).
as §1

Substance: gStub1 #1 (guide GCATTGCTAAGAAGAAGCGC; chemistry not given here)
- Surface MHC-I (Fig. 1b) ([1]; IFNg 0.01 ng/ml, replicate 1): 389
- Surface MHC-I relative to Parental (Fig. 1c) ([1]; IFNg 0.01 ng/ml, replicate 1): 1.67
- Surface MHC-I (Fig. 1b) ([1]; IFNg 0.01 ng/ml, replicate 2): 629
- Surface MHC-I relative to Parental (Fig. 1c) ([1]; IFNg 0.01 ng/ml, replicate 2): 1.88
- Surface MHC-I (Fig. 1b) ([1]; IFNg 0.01 ng/ml, replicate 3): 890
- Surface MHC-I relative to Parental (Fig. 1c) ([1]; IFNg 0.01 ng/ml, replicate 3): 2.53
- Surface MHC-I (Fig. 1b) ([1]; IFNg 0.01 ng/ml, replicate 4): 1203
- Surface MHC-I relative to Parental (Fig. 1c) ([1]; IFNg 0.01 ng/ml, replicate 4): 4.12
- Surface MHC-I (Fig. 1b) ([1]; IFNg 0.03 ng/ml, replicate 1): 1830
- Surface MHC-I relative to Parental (Fig. 1c) ([1]; IFNg 0.03 ng/ml, replicate 1): 6.85
- Surface MHC-I (Fig. 1b) ([1]; IFNg 0.03 ng/ml, replicate 2): 1489
- Surface MHC-I relative to Parental (Fig. 1c) ([1]; IFNg 0.03 ng/ml, replicate 2): 3.84
- Surface MHC-I (Fig. 1b) ([1]; IFNg 0.03 ng/ml, replicate 3): 2317
- Surface MHC-I relative to Parental (Fig. 1c) ([1]; IFNg 0.03 ng/ml, replicate 3): 4.36
- Surface MHC-I (Fig. 1b) ([1]; IFNg 0.03 ng/ml, replicate 4): 3040
- Surface MHC-I relative to Parental (Fig. 1c) ([1]; IFNg 0.03 ng/ml, replicate 4): 6.59
- Surface MHC-I (Fig. 1b) ([1]; IFNg 0.10 ng/ml, replicate 1): 1622
- Surface MHC-I relative to Parental (Fig. 1c) ([1]; IFNg 0.10 ng/ml, replicate 1): 4.52
- Surface MHC-I (Fig. 1b) ([1]; IFNg 0.10 ng/ml, replicate 2): 2825
- Surface MHC-I relative to Parental (Fig. 1c) ([1]; IFNg 0.10 ng/ml, replicate 2): 4.07
- Surface MHC-I (Fig. 1b) ([1]; IFNg 0.10 ng/ml, replicate 3): 4165
- Surface MHC-I relative to Parental (Fig. 1c) ([1]; IFNg 0.10 ng/ml, replicate 3): 3.06
- Surface MHC-I (Fig. 1b) ([1]; IFNg 0.10 ng/ml, replicate 4): 5343
- Surface MHC-I relative to Parental (Fig. 1c) ([1]; IFNg 0.10 ng/ml, replicate 4): 3.53
- Surface MHC-I (Fig. 1b) ([1]; IFNg 0.30 ng/ml, replicate 1): 3870
- Surface MHC-I relative to Parental (Fig. 1c) ([1]; IFNg 0.30 ng/ml, replicate 1): 4.44
- Surface MHC-I (Fig. 1b) ([1]; IFNg 0.30 ng/ml, replicate 2): 3946
- Surface MHC-I relative to Parental (Fig. 1c) ([1]; IFNg 0.30 ng/ml, replicate 2): 3.12
- Surface MHC-I (Fig. 1b) ([1]; IFNg 0.30 ng/ml, replicate 3): 5512
- Surface MHC-I relative to Parental (Fig. 1c) ([1]; IFNg 0.30 ng/ml, replicate 3): 2.33
- Surface MHC-I (Fig. 1b) ([1]; IFNg 0.30 ng/ml, replicate 4): 7772
- Surface MHC-I relative to Parental (Fig. 1c) ([1]; IFNg 0.30 ng/ml, replicate 4): 2.83
- Surface MHC-I (Fig. 1b) ([1]; IFNg 1.00 ng/ml, replicate 1): 6610
- Surface MHC-I relative to Parental (Fig. 1c) ([1]; IFNg 1.00 ng/ml, replicate 1): 2.73
- Surface MHC-I (Fig. 1b) ([1]; IFNg 1.00 ng/ml, replicate 2): 4959
- Surface MHC-I relative to Parental (Fig. 1c) ([1]; IFNg 1.00 ng/ml, replicate 2): 2.67
- Surface MHC-I (Fig. 1b) ([1]; IFNg 1.00 ng/ml, replicate 3): 6900
- Surface MHC-I relative to Parental (Fig. 1c) ([1]; IFNg 1.00 ng/ml, replicate 3): 2.19
- Surface MHC-I (Fig. 1b) ([1]; IFNg 1.00 ng/ml, replicate 4): 9888
- Surface MHC-I relative to Parental (Fig. 1c) ([1]; IFNg 1.00 ng/ml, replicate 4): 2.56
- Surface MHC-I (Fig. 1b) ([1]; IFNg Nil, replicate 1): 267
- Surface MHC-I relative to Parental (Fig. 1c) ([1]; IFNg Nil, replicate 1): 0.97
- Surface MHC-I (Fig. 1b) ([1]; IFNg Nil, replicate 2): 322
- Surface MHC-I relative to Parental (Fig. 1c) ([1]; IFNg Nil, replicate 2): 1.05
- Surface MHC-I (Fig. 1b) ([1]; IFNg Nil, replicate 3): 345
- Surface MHC-I relative to Parental (Fig. 1c) ([1]; IFNg Nil, replicate 3): 1.07
- Surface MHC-I (Fig. 1b) ([1]; IFNg Nil, replicate 4): 296
- Surface MHC-I relative to Parental (Fig. 1c) ([1]; IFNg Nil, replicate 4): 1.15
- Surface IFNGR1 (Fig. 2b) ([2]; IFNg 0.01 ng/ml, replicate 1): 4507
- Surface IFNGR1 relative to Parental (Fig. 2c) ([2]; IFNg 0.01 ng/ml, replicate 1): 2.35
- Surface IFNGR1 (Fig. 2b) ([2]; IFNg 0.01 ng/ml, replicate 2): 4382
- Surface IFNGR1 relative to Parental (Fig. 2c) ([2]; IFNg 0.01 ng/ml, replicate 2): 2.34
- Surface IFNGR1 (Fig. 2b) ([2]; IFNg 0.01 ng/ml, replicate 3): 3988
- Surface IFNGR1 relative to Parental (Fig. 2c) ([2]; IFNg 0.01 ng/ml, replicate 3): 2.16
- Surface IFNGR1 (Fig. 2b) ([2]; IFNg 0.03 ng/ml, replicate 1): 4026
- Surface IFNGR1 relative to Parental (Fig. 2c) ([2]; IFNg 0.03 ng/ml, replicate 1): 1.83
- Surface IFNGR1 (Fig. 2b) ([2]; IFNg 0.03 ng/ml, replicate 2): 3680
- Surface IFNGR1 relative to Parental (Fig. 2c) ([2]; IFNg 0.03 ng/ml, replicate 2): 1.69
- Surface IFNGR1 (Fig. 2b) ([2]; IFNg 0.03 ng/ml, replicate 3): 3566
- Surface IFNGR1 relative to Parental (Fig. 2c) ([2]; IFNg 0.03 ng/ml, replicate 3): 2.17
- Surface IFNGR1 (Fig. 2b) ([2]; IFNg 0.10 ng/ml, replicate 1): 4027
- Surface IFNGR1 relative to Parental (Fig. 2c) ([2]; IFNg 0.10 ng/ml, replicate 1): 2.07
- Surface IFNGR1 (Fig. 2b) ([2]; IFNg 0.10 ng/ml, replicate 2): 3862
- Surface IFNGR1 relative to Parental (Fig. 2c) ([2]; IFNg 0.10 ng/ml, replicate 2): 2.28
- Surface IFNGR1 (Fig. 2b) ([2]; IFNg 0.10 ng/ml, replicate 3): 3601
- Surface IFNGR1 relative to Parental (Fig. 2c) ([2]; IFNg 0.10 ng/ml, replicate 3): 2.06
- Surface IFNGR1 (Fig. 2b) ([2]; IFNg 0.30 ng/ml, replicate 1): 3595
- Surface IFNGR1 relative to Parental (Fig. 2c) ([2]; IFNg 0.30 ng/ml, replicate 1): 1.70
- Surface IFNGR1 (Fig. 2b) ([2]; IFNg 0.30 ng/ml, replicate 2): 3609
- Surface IFNGR1 relative to Parental (Fig. 2c) ([2]; IFNg 0.30 ng/ml, replicate 2): 2.03
- Surface IFNGR1 (Fig. 2b) ([2]; IFNg 0.30 ng/ml, replicate 3): 3263
- Surface IFNGR1 relative to Parental (Fig. 2c) ([2]; IFNg 0.30 ng/ml, replicate 3): 1.89
- Surface IFNGR1 (Fig. 2b) ([2]; IFNg 1.00 ng/ml, replicate 1): 3107
- Surface IFNGR1 relative to Parental (Fig. 2c) ([2]; IFNg 1.00 ng/ml, replicate 1): 1.68
- Surface IFNGR1 (Fig. 2b) ([2]; IFNg 1.00 ng/ml, replicate 2): 3061
- Surface IFNGR1 relative to Parental (Fig. 2c) ([2]; IFNg 1.00 ng/ml, replicate 2): 1.74
- Surface IFNGR1 (Fig. 2b) ([2]; IFNg 1.00 ng/ml, replicate 3): 2676
- Surface IFNGR1 relative to Parental (Fig. 2c) ([2]; IFNg 1.00 ng/ml, replicate 3): 1.66
- Surface IFNGR1 (Fig. 2b) ([2]; IFNg Nil, replicate 1): 4564
- Surface IFNGR1 relative to Parental (Fig. 2c) ([2]; IFNg Nil, replicate 1): 2.27
- Surface IFNGR1 (Fig. 2b) ([2]; IFNg Nil, replicate 2): 4378
- Surface IFNGR1 relative to Parental (Fig. 2c) ([2]; IFNg Nil, replicate 2): 2.36
- Surface IFNGR1 (Fig. 2b) ([2]; IFNg Nil, replicate 3): 4200
- Surface IFNGR1 relative to Parental (Fig. 2c) ([2]; IFNg Nil, replicate 3): 2.25
